Results as given in PubChem BioAssay (NCI).
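Values below derive from 48-hour exposures of cells grown in 96-well plates, with endpoints linearly interpolated between the two concentrations bracketing the appropriate inhibition level. TGI marks complete inhibition of growth.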

Tests used:
Test in all cases: growth of human tumour cells (NCI), 48 h
PC-3 prostate = system: PC-3 prostate
NCI/ADR-RES ovarian = system: NCI/ADR-RES ovarian
SF-539 CNS = system: SF-539 CNS
SNB-19 CNS = system: SNB-19 CNS
DU-145 prostate = system: DU-145 prostate
SF-268 CNS = system: SF-268 CNS
UO-31 renal = system: UO-31 renal
CAKI-1 renal = system: CAKI-1 renal
HT29 colon = system: HT29 colon
TK-10 renal = system: TK-10 renal
SW-620 colon = system: SW-620 colon
UACC-62 melanoma = system: UACC-62 melanoma
RXF 393 renal = system: RXF 393 renal
KM12 colon = system: KM12 colon
OVCAR-4 ovarian = system: OVCAR-4 ovarian
T-47D breast = system: T-47D breast
MDA-MB-231 breast = system: MDA-MB-231 breast
M14 melanoma = system: M14 melanoma
HL-60(TB) leukemia = system: HL-60(TB) leukemia
SF-295 CNS = system: SF-295 CNS
HCC-2998 colon = system: HCC-2998 colon
OVCAR-5 ovarian = system: OVCAR-5 ovarian
HCT-116 colon = system: HCT-116 colon
COLO 205 colon = system: COLO 205 colon
MOLT-4 leukemia = system: MOLT-4 leukemia
K-562 leukemia = system: K-562 leukemia
MALME-3M melanoma = system: MALME-3M melanoma
SR leukemia = system: SR leukemia
MDA-MB-435 = system: MDA-MB-435
BT-549 breast = system: BT-549 breast
LOX IMVI melanoma = system: LOX IMVI melanoma
786-0 renal = system: 786-0 renal
ACHN renal = system: ACHN renal
U251 CNS = system: U251 CNS
A498 renal = system: A498 renal
SK-MEL-28 melanoma = system: SK-MEL-28 melanoma
SK-OV-3 ovarian = system: SK-OV-3 ovarian
SNB-75 CNS = system: SNB-75 CNS
NCI-H23 lung = system: NCI-H23 lung
NCI-H460 lung = system: NCI-H460 lung
MCF7 breast = system: MCF7 breast
SK-MEL-2 melanoma = system: SK-MEL-2 melanoma
SK-MEL-5 melanoma = system: SK-MEL-5 melanoma
HOP-62 NSCLC = system: HOP-62 NSCLC
HOP-92 NSCLC = system: HOP-92 NSCLC
NCI-H226 lung = system: NCI-H226 lung
NCI-H522 lung = system: NCI-H522 lung
RPMI-8226 leukemia = system: RPMI-8226 leukemia
OVCAR-3 ovarian = system: OVCAR-3 ovarian
EKVX NSCLC = system: EKVX NSCLC
HCT-15 colon = system: HCT-15 colon
A549 NSCLC = system: A549 NSCLC
OVCAR-8 ovarian = system: OVCAR-8 ovarian
UACC-257 melanoma = system: UACC-257 melanoma
CCRF-CEM leukemia = system: CCRF-CEM leukemia
IGROV1 ovarian = system: IGROV1 ovarian
SN12C renal = system: SN12C renal

Structure (SMILES): COc1ccc(C23OCC(Cc4cc(OC)c(OC)cc42)C3COC(C)=O)cc1OC (stereo not given)
- TGI (PC-3 prostate): > 100 µM
- TGI (NCI/ADR-RES ovarian): > 100 µM
- TGI (SF-539 CNS): > 100 µM
- TGI (SNB-19 CNS): > 100 µM
- TGI (DU-145 prostate): > 100 µM
- TGI (SF-268 CNS): > 100 µM
- TGI (UO-31 renal): > 100 µM
- TGI (CAKI-1 renal): > 100 µM
- TGI (HT29 colon): > 100 µM
- TGI (TK-10 renal): > 100 µM
- TGI (SW-620 colon): > 100 µM
- TGI (UACC-62 melanoma): > 100 µM
- TGI (RXF 393 renal): > 100 µM
- TGI (KM12 colon): > 100 µM
- TGI (OVCAR-4 ovarian): > 100 µM
- TGI (T-47D breast): > 100 µM
- TGI (MDA-MB-231 breast): > 100 µM
- TGI (M14 melanoma): > 100 µM
- TGI (HL-60(TB) leukemia): > 100 µM
- TGI (SF-295 CNS): > 100 µM
- TGI (HCC-2998 colon): > 100 µM
- TGI (OVCAR-5 ovarian): > 100 µM
- TGI (HCT-116 colon): > 100 µM
- TGI (COLO 205 colon): > 100 µM
- TGI (MOLT-4 leukemia): > 100 µM
- TGI (K-562 leukemia): > 100 µM
- TGI (MALME-3M melanoma): > 100 µM
- TGI (SR leukemia): > 100 µM
- TGI (MDA-MB-435): > 100 µM
- TGI (BT-549 breast): > 100 µM
- TGI (LOX IMVI melanoma): > 100 µM
- TGI (786-0 renal): > 100 µM
- TGI (ACHN renal): > 100 µM
- TGI (U251 CNS): > 100 µM
- TGI (A498 renal): > 100 µM
- TGI (SK-MEL-28 melanoma): > 100 µM
- TGI (SK-OV-3 ovarian): > 100 µM
- TGI (SNB-75 CNS): > 100 µM
- TGI (NCI-H23 lung): > 100 µM
- TGI (NCI-H460 lung): > 100 µM
- TGI (MCF7 breast): > 100 µM
- TGI (SK-MEL-2 melanoma): > 100 µM
- TGI (SK-MEL-5 melanoma): > 100 µM
- TGI (HOP-62 NSCLC): > 100 µM
- TGI (HOP-92 NSCLC): > 100 µM
- TGI (NCI-H226 lung): > 100 µM
- TGI (NCI-H522 lung): > 100 µM
- TGI (RPMI-8226 leukemia): > 100 µM
- TGI (OVCAR-3 ovarian): > 100 µM
- TGI (EKVX NSCLC): > 100 µM
- TGI (HCT-15 colon): > 100 µM
- TGI (A549 NSCLC): > 100 µM

Structure (SMILES): N#Cc1c(-c2ccc([N+](=O)[O-])cc2)cc(-c2ccc(Nc3ccnc4cc(C(F)(F)F)ccc34)cc2)[nH]c1=O
- TGI (PC-3 prostate): > 100 µM
- TGI (NCI/ADR-RES ovarian): > 100 µM
- TGI (SF-539 CNS): > 100 µM
- TGI (OVCAR-8 ovarian): > 100 µM
- TGI (SNB-19 CNS): 82.7 µM
- TGI (DU-145 prostate): > 100 µM
- TGI (SF-268 CNS): > 100 µM
- TGI (UACC-257 melanoma): > 100 µM
- TGI (UO-31 renal): > 100 µM
- TGI (CAKI-1 renal): > 100 µM
- TGI (HT29 colon): > 100 µM
- TGI (TK-10 renal): > 100 µM
- TGI (SW-620 colon): > 100 µM
- TGI (UACC-62 melanoma): > 100 µM
- TGI (RXF 393 renal): > 100 µM
- TGI (OVCAR-4 ovarian): > 100 µM
- TGI (T-47D breast): > 100 µM
- TGI (MDA-MB-231 breast): 44.7 µM
- TGI (M14 melanoma): > 100 µM
- TGI (CCRF-CEM leukemia): > 100 µM
- TGI (SF-295 CNS): > 100 µM
- TGI (HCC-2998 colon): > 100 µM
- TGI (OVCAR-5 ovarian): 40.1 µM
- TGI (IGROV1 ovarian): > 100 µM
- TGI (HCT-116 colon): 66.1 µM
- TGI (COLO 205 colon): 29.1 µM
- TGI (MOLT-4 leukemia): > 100 µM
- TGI (K-562 leukemia): > 100 µM
- TGI (MALME-3M melanoma): > 100 µM
- TGI (SR leukemia): > 100 µM
- TGI (MDA-MB-435): > 100 µM
- TGI (BT-549 breast): > 100 µM
- TGI (LOX IMVI melanoma): > 100 µM
- TGI (786-0 renal): > 100 µM
- TGI (ACHN renal): > 100 µM
- TGI (U251 CNS): 21.9 µM
- TGI (A498 renal): > 100 µM
- TGI (SN12C renal): > 100 µM
- TGI (SK-MEL-28 melanoma): > 100 µM
- TGI (SK-OV-3 ovarian): > 100 µM
- TGI (SNB-75 CNS): > 100 µM
- TGI (NCI-H23 lung): > 100 µM
- TGI (NCI-H460 lung): > 100 µM
- TGI (MCF7 breast): > 100 µM
- TGI (SK-MEL-2 melanoma): > 100 µM
- TGI (SK-MEL-5 melanoma): > 100 µM
- TGI (HOP-62 NSCLC): > 100 µM
- TGI (NCI-H226 lung): > 100 µM
- TGI (NCI-H522 lung): > 100 µM
- TGI (RPMI-8226 leukemia): > 100 µM
- TGI (EKVX NSCLC): > 100 µM
- TGI (HCT-15 colon): > 100 µM
- TGI (A549 NSCLC): > 100 µM
